Test results: patent publication US12435294B2, “Prevention of the oxidation of perfumery raw materials and food raw materials” (Firmenich SA, priority 2018, dated 2025)
Read-outs that look alike come from different tables or passages of the source.

What was measured:
[1] = POV reduction in non-citrus essential oil: pine oil Siberian; settings: 4 days
Protocol: (§1) For each oil, 20 mL was placed in separate 30 mL glass vials, and subjected to the following procedure for 8 days on a daily basis; the vial was opened to refresh the atmospheric headspace, then reclosed and shaken to maximize the gas/liquid contact, then stored on the benchtop under ambient laboratory temperature and lighting conditions. This procedure was designed to mimic the typical handling of a container in a production setting, in which the oil gets consumed in many small aliquots, rather than an entire container at a time.
(§2) On Day 4, each oil sample was split in half, so two 10 mL aliquots were placed in separate vials to create a “Treated” and an “Untreated” sample. To the Treated sample of each oil type, AKG-DiTMEEA was added as per the Dosing chart below. […] The daily opening, shaking, and standing procedure continued for another four days until the POV measurements were taken. It can be seen that 8 days of such handling of the untreated oils caused significant increases in POV measurement.
For this reason, two levels of AKG-DiTMEEA treatment were tried, ×2 and ×4 the treatment used on the other oils. […] A different, lower molecular weight 2-oxoacid salt may be a better choice.

[2] = POV reduction in sunflower oil; settings: 0.5081 g in 15 mL sunflower oil
[3] = POV reduction in non-citrus essential oil: petitgrain oil; settings: 4 days treatment, 0.2 mL in 10 mL
Protocol: as §1, §2

[4] = POV reduction in non-citrus essential oil: cinnamon leaf oil; settings: 4 days treatment, 0.2 mL in 10 mL
Protocol: as §1, §2

[5] = POV reduction in consumer product spiked with oxidized limonene: antiperspirant stick; settings: 1% (w/w)
[6] = POV reduction in non-citrus essential oil: patchouli oil; settings: 4 days treatment, 0.2 mL in 10 mL
Protocol: as §1, §2

[7] = POV reduction in non-citrus essential oil: star anise oil; settings: 4 days treatment, 0.2 mL in 10 mL
Protocol: as §1, §2

[8] = POV reduction in non-citrus essential oil: coriander oil; settings: 4 days treatment, 0.2 mL in 10 mL
Protocol: as §1, §2

[9] = POV reduction in non-citrus essential oil: basil oil; settings: 4 days treatment, 0.2 mL in 10 mL
Protocol: as §1, §2

[10] = POV reduction in non-citrus essential oil: lavender oil; settings: 4 days treatment, 0.2 mL in 10 mL
Protocol: as §1, §2

[11] = POV reduction in non-citrus essential oil: cedarwood oil Virginian; settings: 4 days treatment, 0.2 mL in 10 mL
Protocol: as §1, §2

[12] = leading to evolution of carbon dioxide and pyruvic acid; Krebs 1942; cited from earlier work
[13] = POV reduction in model citrus perfume (mixed citrus oil in 90/10 v/v ethanol/water)
[14] = pH of aqueous solution; format: physicochemical; settings: solution of 0.114 g in 10 mL of water
[15] = Siberian (x2 Treatment Level), 0.2 mL in 5 mL
[16] = Siberian (x4 Treatment Level), 0.4 mL in 5 mL
[17] = 8 days* (second line, asterisk not explained)

COCCOCCN(CCOCCOC)CCOCCOC.COCCOCCN(CCOCCOC)CCOCCOC.O=C(O)CCC(=O)C(=O)O [AKG-diTMEEA]
% Reduction in POV [1, 15]: 48.4% | POV of Treated Oil [1, 15]: 24.8 mmol/L | % Reduction in POV [1, 16]: 68.4% | POV of Treated Oil [1, 16]: 15.21 mmol/L | POV of treated oil ([2]; 65 minutes since addition): 11.72 mmol/L | % Reduction in POV ([2]; 65 minutes): 29.2% | % Reduction in POV ([2]; 180 mins (3 hrs)): 44.5% | POV of treated oil ([2]; 180 mins (3 hrs)): 9.19 mmol/L | % Reduction in POV ([2]; 1320 mins (22 hrs)): 65.0% | POV of treated oil ([2]; 1320 mins (22 hrs)): 5.80 mmol/L | % Reduction in POV ([2]; 23 days): 88.7% | POV of treated oil ([2]; 23 days): 2.10 mmol/L | % Reduction in POV [3]: 79.9% | POV of Treated Oil [3]: 4.28 mmol/L | % Reduction in POV [4]: 87.5% | POV of Treated Oil [4]: 0.57 mmol/L | POV of treated APS ([5]; 150 minutes since addition, spiked with oxidized limonene): 3.7 mmol/L | % Reduction in POV ([5]; 150 minutes): 71.3% | % Reduction in POV ([5]; 310 minutes (5.17 h)): 78.3% | POV of treated APS ([5]; 310 minutes (5.17 h)): 3.03 mmol/L | % Reduction in POV ([5]; 26 hrs): 83.2% | POV of treated APS ([5]; 26 hrs): 2.46 mmol/L | % Reduction in POV ([5]; 4 days): 83.8% | POV of treated APS ([5]; 4 days): 2.04 mmol/L | % Reduction in POV [5, 17]: 86.6% | POV of treated APS [5, 17]: 1.8 mmol/L | % Reduction in POV ([5]; 8 days): 87.0% | POV of treated APS ([5]; 8 days): 1.77 mmol/L | % Reduction in POV ([5]; 15 days): 88.4% | POV of treated APS ([5]; 15 days): 1.50 mmol/L | % Reduction in POV ([5]; 26 days): 88.7% | POV of treated APS ([5]; 26 days): 1.42 mmol/L | % Reduction in POV [6]: 100.0% | POV of Treated Oil [6]: 0.00 mmol/L | % Reduction in POV [7]: 89.2% | POV of Treated Oil [7]: 0.38 mmol/L | % Reduction in POV [8]: 89.7% | POV of Treated Oil [8]: 2.44 mmol/L | % Reduction in POV [9]: 89.6% | POV of Treated Oil [9]: 2.49 mmol/L | % Reduction in POV [10]: 76.3% | POV of Treated Oil [10]: 5.83 mmol/L | % Reduction in POV [11]: 95.2% | POV of Treated Oil [11]: 0.72 mmol/L

O=C(O)CC(=O)C(=O)O [oxaloacetic acid]
stability in aqueous solutions [12]: unstable in aqueous solutions | POV of Treated Perfume ([13]; 0.0 min, approximately 166 mg (0.83% w/v) in 20 mL model perfume (Example 19)): 9.44 mmol/L | POV of Treated Perfume ([13]; 27 min, 0.83% w/v in 20 mL model perfume (Example 19)): 5.90 mmol/L | POV of Treated Perfume ([13]; 245 min, 0.83% w/v in 20 mL model perfume (Example 19)): 1.91 mmol/L | reduction in the POV of the formulated perfume (in words) ([13]; 24 hours after treatment): complete reduction | POV of Treated Perfume ([13]; […] (24 hours), 0.83% w/v in 20 mL model perfume (Example 19), indistinguishable from blank): 0.0 indistinguishable from mmol/L

O=C(O)CCC(=O)C(=O)O [α-ketoglutaric acid, alpha-ketoglutaric acid]
measured pH [14]: 1.75 | reduction in the POV of the formulated perfume (in words) [13]: complete reduction
